Source: publication PMC6767220, “Active Anti-Inflammatory and Hypolipidemic Derivatives of Lorazepam” (Molecules, 2019)
Where two headings read alike, the source gives them in different places.

What was measured:
soybean lipoxygenase-1 = target: T1, soybean lipoxygenase-1 (Glycine max, UniProt P08170); assay: Inhibition of soybean lipoxygenase; assay type: biochemical; settings: sodium linoleate 0.1 mM, 7 min incubation; read-out: Lipoxygenase IC50
T1 sequence (P08170 1-839): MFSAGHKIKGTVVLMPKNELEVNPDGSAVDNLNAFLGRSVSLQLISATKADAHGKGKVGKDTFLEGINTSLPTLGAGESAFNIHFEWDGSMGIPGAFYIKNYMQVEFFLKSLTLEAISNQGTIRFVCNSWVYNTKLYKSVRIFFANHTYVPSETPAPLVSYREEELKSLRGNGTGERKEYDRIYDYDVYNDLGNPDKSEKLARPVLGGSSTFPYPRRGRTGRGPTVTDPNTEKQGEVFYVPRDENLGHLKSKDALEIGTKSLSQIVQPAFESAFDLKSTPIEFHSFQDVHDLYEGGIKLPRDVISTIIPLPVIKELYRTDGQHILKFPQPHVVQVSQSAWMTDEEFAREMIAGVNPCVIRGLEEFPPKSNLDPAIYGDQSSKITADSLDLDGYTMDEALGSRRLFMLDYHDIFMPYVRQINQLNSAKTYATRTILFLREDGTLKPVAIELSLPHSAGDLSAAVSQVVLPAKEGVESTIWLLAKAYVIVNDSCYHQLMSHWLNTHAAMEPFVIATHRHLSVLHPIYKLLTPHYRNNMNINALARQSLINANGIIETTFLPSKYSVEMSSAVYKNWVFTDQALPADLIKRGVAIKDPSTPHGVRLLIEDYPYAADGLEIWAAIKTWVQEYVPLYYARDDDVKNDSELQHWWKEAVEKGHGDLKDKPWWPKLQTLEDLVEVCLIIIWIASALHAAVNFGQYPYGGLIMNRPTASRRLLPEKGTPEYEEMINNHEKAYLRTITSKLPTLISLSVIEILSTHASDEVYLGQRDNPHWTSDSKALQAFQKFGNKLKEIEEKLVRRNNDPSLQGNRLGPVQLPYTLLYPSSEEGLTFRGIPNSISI
Method: The reaction mixture contained the test compounds dissolved in ethanol and soybean lipoxygenase (250 U/mL) in Tris buffer (pH 9). The reaction was initiated by the addition of sodium linoleate (0.1 mM) and monitored for 7 min at 28 °C, by recording the absorbance of a conjugated diene structure at 234 nm. For the estimation of the type of inhibition, the above experiments were repeated, using sodium linoleate at 1 mM, which is higher than the saturating substrate concentration.

inflammation [1] = settings: cited from earlier work
inflammation [2] = tested on: inflammation; parameters: method as in PMID 25792646; settings: cited from earlier work
[3] = tested on: carrageenan-induced rat paw oedema; assay: Carrageenan-induced rat paw oedema; assay type: in vivo; settings: ip, i.p. 0.15 mmol/kg, 3.5 h post administration, vs controls, read-out: % Oedema Reduction
Method: An aqueous solution of carrageenan was prepared (1% w/v) and 0.1 mL of this was injected i.d. into the right hind paw of female rats; the left paw served as control. The tested compounds (suspended in water with a few drops of Tween 80) were given intra peritoneally (i.p.) (0.15 mmol/kg) 5 min prior to the carrageenan injection. After 3.5 h the hind paws were weighed separately. The produced oedema was estimated as paw weight increase.

[4] = tested on: Triton WR1339 (tyloxapol) induced hyperlipidemia; assay: Triton WR1339 (tyloxapol) induced hyperlipidemia: plasma TC, TG, LDL-C; assay type: in vivo; settings: ip, rat plasma, 24 h, tyloxapol 200 mg/kg i.p.; for inhibition in vivo at 50 µmol/kg: dose i.p. 50 µmol/kg; for inhibition in vivo at 150 µmol/kg: dose i.p. 150 µmol/kg
[5] = Interaction with the stable radical DPPH; settings: DPPH 200 µΜ, 30 min incubation
Method: Compounds (in absolute ethanol, final concentration 50–200 µM) were added to an equal volume of an ethanolic solution of DPPH (final concentration 200 µM) at room temperature (22 ± 2 °C). Absorbance (517 nm) was recorded after 30 min [22].

[6] = tested on: rat hepatic microsomal membrane lipid peroxidation; assay: Inhibition of rat hepatic microsomal membrane lipid peroxidation induced by ferrous ascorbate; assay type: biochemical; settings: rat hepatic microsomal fraction, ferrous ascorbate, 45 min incubation
Method: The incubation mixture contained heat-inactivated rat hepatic microsomal fraction, ascorbic acid (0.2 mM) in Tris–HCl/KCl buffer (pH 7.4) and the test compounds dissolved in dimethylsulphoxide. The reaction was initiated by FeSO4 (10 µM) and the mixture was incubated at 37 °C. Aliquots were taken at various time intervals for 45 min. Lipid peroxidation was assessed spectrophotometrically (535 against 600 nm) by the determination of 2-thiobarbituric acid (TBA) reactive material.

[7] = read-out: % Reduction LDL-C (LDL cholesterol)
[8] = read-out: % Reduction TC (total cholesterol)
[9] = read-out: % Reduction TG (triglycerides)

| Structure (SMILES) | IC50 (soybean lipoxygenase-1) [µM] | Anti-inflammatory action in vivo (inflammation [1]) | Anti-inflammatory action in vitro (inflammation [2]) | inhibition in vivo at 150 µmol/kg [3] [%] | inhibition in vivo at 50 µmol/kg [4, 7] [%] | inhibition in vivo at 50 µmol/kg [4, 8] [%] | inhibition in vivo at 50 µmol/kg [4, 9] [%] | inhibition in vivo at 150 µmol/kg [4, 7] [%] | inhibition in vivo at 150 µmol/kg [4, 8] [%] | inhibition in vivo at 150 µmol/kg [4, 9] [%] | Percent Interaction with DPPH ([5]; compound 50 µΜ) [%] | Percent Interaction with DPPH ([5]; compound 100 µΜ) [%] | Percent Interaction with DPPH ([5]; compound 200 µΜ) [%] | IC50 [6] [µM] | melting point [°C] | Anti-inflammatory action (inflammation [1]; at similar doses) |
| --- | --- | --- | --- | --- | --- | --- | --- | --- | --- | --- | --- | --- | --- | --- | --- | --- |
| Cc1cc(C(C)(C)C)c(O)c(C(C)(C)C)c1 [BHT, 2,6-di-tert-butyl-4-methylphenol] | 192 | lacks such action | lacks such action |  |  |  |  |  |  |  |  |  |  |  |  |  |
| CC(C)(C)c1cc(C=CC(=O)OC2N=C(c3ccccc3Cl)c3cc(Cl)ccc3NC2=O)cc(C(C)(C)C)c1O (centres unmarked) [Compound 8, (E)-7-Chloro-5-(2-chlorophenyl)-2-oxo-2,3-dihydro-1H-benzo[e][1,4]diazepin-3-yl 3-(3,5-di-tert-butyl-4-hydroxyphenyl)acrylate] | 44 |  |  | 37 | 44 | 59 | 52 | 63 | 81 | 66 | 30 | 49 | 90 | > 100 | 274 |  |
| O=C(O)CCCC[C@@H]1CCSS1 [lipoic acid, (R)-5-(1,2-dithiolan-3-yl)pentanoic acid] |  |  |  |  |  |  |  |  |  |  |  |  |  |  |  | weak anti-inflammatory agent |
